Test results from US9365588B2, “Benzoxazines as modulators of ion channels” (Vertex Pharmaceuticals Incorporated, priority 2011, dated 2016).

These molecules were tested against human NaV 1.7 (Homo sapiens, UniProt Q15858) (assay: E-VIPR optical membrane potential assay with electrical stimulation). Details: sodium channel inhibition; read-out: Binned Activity Data (IC50).
Assay type: cell-based
Summary of the method: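 Membrane-potential read-out: background-subtracted 460 nm/580 nm ratio during a 9 s current-controlled stimulus, 400 Hz scan. Before stimulation, NaV1.7-HEK cells carried coumarin/oxonol dye and compound (final DMSO 0.625%) for 20–35 min at room temperature; tetracaine 125 μM served as positive control.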

human NaV 1.7, sequence (Q15858 whole entry): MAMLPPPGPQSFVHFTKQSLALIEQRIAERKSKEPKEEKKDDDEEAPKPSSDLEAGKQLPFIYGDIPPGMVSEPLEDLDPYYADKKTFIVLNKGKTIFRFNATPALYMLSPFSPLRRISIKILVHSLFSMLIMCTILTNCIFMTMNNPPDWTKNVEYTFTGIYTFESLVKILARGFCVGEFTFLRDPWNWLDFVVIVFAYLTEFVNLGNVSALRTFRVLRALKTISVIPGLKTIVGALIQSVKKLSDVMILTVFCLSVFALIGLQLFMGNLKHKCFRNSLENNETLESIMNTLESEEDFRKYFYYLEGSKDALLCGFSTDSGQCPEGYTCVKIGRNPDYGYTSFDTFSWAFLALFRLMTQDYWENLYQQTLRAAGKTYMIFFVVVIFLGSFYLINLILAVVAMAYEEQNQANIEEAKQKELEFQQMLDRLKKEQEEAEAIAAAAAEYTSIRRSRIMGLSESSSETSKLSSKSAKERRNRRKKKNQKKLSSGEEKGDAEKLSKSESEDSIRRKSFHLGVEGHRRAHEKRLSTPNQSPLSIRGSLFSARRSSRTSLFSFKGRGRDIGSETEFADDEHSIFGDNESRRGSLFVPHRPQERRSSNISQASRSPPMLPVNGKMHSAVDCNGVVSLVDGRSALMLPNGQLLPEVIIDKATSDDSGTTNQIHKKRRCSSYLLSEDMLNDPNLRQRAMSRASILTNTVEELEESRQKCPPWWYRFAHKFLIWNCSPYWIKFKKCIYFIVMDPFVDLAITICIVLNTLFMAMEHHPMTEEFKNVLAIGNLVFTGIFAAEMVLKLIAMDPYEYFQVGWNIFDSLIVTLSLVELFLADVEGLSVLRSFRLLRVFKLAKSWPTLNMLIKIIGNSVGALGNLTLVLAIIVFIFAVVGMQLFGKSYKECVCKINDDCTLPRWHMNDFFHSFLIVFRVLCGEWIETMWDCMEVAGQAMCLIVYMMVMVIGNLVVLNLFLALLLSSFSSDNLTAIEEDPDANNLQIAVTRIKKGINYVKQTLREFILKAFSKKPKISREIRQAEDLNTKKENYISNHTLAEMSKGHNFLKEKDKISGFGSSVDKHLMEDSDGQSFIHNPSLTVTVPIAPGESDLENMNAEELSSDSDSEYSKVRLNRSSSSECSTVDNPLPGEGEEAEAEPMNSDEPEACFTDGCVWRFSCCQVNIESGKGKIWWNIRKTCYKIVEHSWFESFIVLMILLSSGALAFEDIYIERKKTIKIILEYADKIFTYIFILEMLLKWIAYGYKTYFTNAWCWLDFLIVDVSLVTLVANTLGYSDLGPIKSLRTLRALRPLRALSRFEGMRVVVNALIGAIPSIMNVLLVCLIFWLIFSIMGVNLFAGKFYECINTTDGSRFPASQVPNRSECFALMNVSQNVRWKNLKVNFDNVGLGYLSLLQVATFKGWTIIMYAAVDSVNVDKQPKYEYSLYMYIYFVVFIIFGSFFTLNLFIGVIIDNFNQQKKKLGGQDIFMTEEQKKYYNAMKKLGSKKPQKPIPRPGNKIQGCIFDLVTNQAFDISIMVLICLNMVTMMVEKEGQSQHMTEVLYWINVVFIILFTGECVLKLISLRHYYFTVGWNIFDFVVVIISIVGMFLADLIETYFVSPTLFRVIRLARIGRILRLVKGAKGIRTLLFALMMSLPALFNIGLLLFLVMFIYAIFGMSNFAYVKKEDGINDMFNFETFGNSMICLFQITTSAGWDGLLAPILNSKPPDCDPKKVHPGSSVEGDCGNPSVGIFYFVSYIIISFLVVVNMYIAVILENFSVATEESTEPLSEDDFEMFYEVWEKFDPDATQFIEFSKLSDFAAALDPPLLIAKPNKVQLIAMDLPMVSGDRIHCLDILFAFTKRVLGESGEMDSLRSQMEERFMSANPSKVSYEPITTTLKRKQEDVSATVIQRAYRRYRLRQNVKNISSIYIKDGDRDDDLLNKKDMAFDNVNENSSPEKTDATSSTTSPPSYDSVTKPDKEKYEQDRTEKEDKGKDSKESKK

SMILES | IC50
COc1cc(C(=O)N2CCC3(CC2)Oc2ccccc2-n2ccnc23)ccc1OC(C)C [Compound 316] | ≤ 2 µM
Cc1c(F)cccc1C(=O)N1CCC2(CC1)Oc1ccccc1-c1c2cnn1C [Compound 44] | ≤ 2 µM
Cn1cccc(C(=O)N2CCC3(CC2)Oc2cc(Cl)ccc2-n2cccc23)c1=O [Compound 147] | ≤ 2 µM
COc1ccc2[nH]cc(C(=O)N3CCC4(CC3)Oc3ccccc3-c3c4cnn3C)c2c1 [Compound 14] | ≤ 2 µM
COc1cc(OC(C)C)ccc1C(=O)N1CCC2(CC1)Oc1ccccc1-c1c2cnn1C [Compound 694] | ≤ 2 µM
Cc1cc(C(=O)N2CCC3(CC2)Oc2ccccc2-c2c3cnn2C)ccc1O [Compound 700] | ≤ 2 µM
CS(=O)(=O)c1ccc2n1-c1ccccc1OC21CCN(C(=O)c2ccccc2OC(F)F)CC1 [Compound 195] | ≤ 2 µM
Cc1cccc(C(=O)N2CCC3(CC2)Oc2ccccc2-c2c3cnn2C)c1 [Compound 491] | > 5 µM
Cn1ncc2c1-c1ccccc1OC21CCN(C(=O)c2cn(C)c3ccccc23)CC1 [Compound 218] | ≤ 2 µM
O=C(c1cccnc1Oc1ccccc1)N1CCC2(CC1)Oc1ccccc1-n1c(C(F)(F)F)ccc12 [Compound 330] | ≤ 2 µM
COc1ccc(Cl)cc1C(=O)N1CCC2(CC1)Oc1ccccc1-c1c2cnn1C [Compound 80] | > 5 µM
COc1cccc(OC)c1C(=O)N1CCC2(CC1)Oc1ccccc1-c1c2cnn1C [Compound 748] | 2 to 5 µM
Cc1ccc(C(=O)N2CCC3(CC2)Oc2cc(Cl)ccc2-n2cccc23)cc1C [Compound 105] | ≤ 2 µM
CCOc1ccc(C(=O)N2CCC3(CC2)Oc2ccccc2-c2c3cnn2C)cc1OC [Compound 866] | ≤ 2 µM
COc1cc(C(=O)N2CCC3(CC2)Oc2cc(F)ccc2-n2cccc23)ccc1O[C@@H]1CCOC1 [Compound 683] | ≤ 2 µM
COc1ccc(C(=O)N2CCC3(CC2)Oc2ccccc2-n2c(C(F)(F)F)ccc23)nc1 [Compound 438] | ≤ 2 µM

SMILES | IC50
COc1cc(C(=O)N2CCC3(CC2)Oc2ccccc2-n2cccc23)ccc1OC[C@H](C)OC [Compound 48] | ≤ 2 µM
O=C(c1ccc(S(=O)(=O)C2CC2)cc1)N1CCC2(CC1)Oc1ccccc1-n1c(C(F)(F)F)ccc12 [Compound 270] | ≤ 2 µM
Cn1ncc2c1-c1ccccc1OC21CCN(C(=O)c2ccc3c(c2)CC(C)(C)O3)CC1 [Compound 182] | 2 to 5 µM
CCS(=O)(=O)c1ccc(C(=O)N2CCC3(CC2)Oc2ccccc2-c2c3cnn2C)cc1 [Compound 859] | 2 to 5 µM
COc1cc(C(=O)N2CCC3(CC2)Oc2cc(Cl)ccc2-n2cccc23)ccc1C1(OC)COC1 [Compound 45] | ≤ 2 µM
COCc1ccccc1C(=O)N1CCC2(CC1)Oc1ccccc1-c1c2cnn1C [Compound 219] | ≤ 2 µM
O=C(c1ccc(OCCO)cc1)N1CCC2(CC1)Oc1ccccc1-n1cccc12 [Compound 184] | ≤ 2 µM
Cc1cc(C(=O)N2CCC3(CC2)Oc2ccccc2-c2c3cnn2C)ccc1C(C)(C)O [Compound 750] | ≤ 2 µM
CCNS(=O)(=O)c1ccc(C(=O)N2CCC3(CC2)Oc2ccccc2-c2c3cnn2C)cc1 [Compound 521] | ≤ 2 µM
CC(C)S(=O)(=O)c1ccc(C(=O)N2CCC3(CC2)Oc2cc(F)ccc2-n2c(C(F)(F)F)ccc23)cc1 [Compound 804] | > 5 µM
COc1ccc(F)cc1C(=O)N1CCC2(CC1)Oc1ccccc1-n1c(C#N)ccc12 [Compound 115] | ≤ 2 µM
CC(C)S(=O)(=O)c1ccc(C(=O)N2CCC3(CC2)Oc2ccccc2-n2c(C(F)(F)F)ccc23)nc1 [Compound 881] | ≤ 2 µM
CC[C@@H](C)Oc1ccc(C(=O)N2CCC3(CC2)Oc2ccccc2-n2cccc23)cc1C(F)(F)F [Compound 131] | ≤ 2 µM
CC(C)(O)c1ccc(C(=O)N2CCC3(CC2)Oc2ccccc2-n2c(C(F)(F)F)ccc23)cn1 [Compound 455] | > 5 µM
Cc1ccc2c(c1)OC1(CCN(C(=O)c3ccc(S(C)(=O)=O)c(C)c3)CC1)c1ccc(C#N)n1-2 [Compound 522] | ≤ 2 µM

The remaining lines, values ahead:

IC50 | SMILES
≤ 2 µM | CC[C@H](C)Oc1ccc(C(=O)N2CCC3(CC2)Oc2ccccc2-n2cccc23)cc1OC [Compound 326]
≤ 2 µM | CCn1ncc2c1-c1ccccc1OC21CCN(C(=O)c2ccccc2OC(F)(F)F)CC1 [Compound 321]
≤ 2 µM | COc1c(F)cccc1C(=O)N1CCC2(CC1)Oc1cc(Cl)ccc1-n1c(C#N)ccc12 [Compound 665]
≤ 2 µM | COCCn1ncc2c1-c1ccccc1OC21CCN(C(=O)c2ccc(C(C)(C)C)c(OC)c2)CC1 [Compound 82]
≤ 2 µM | COc1cc(C(=O)N2CCC3(CC2)Oc2ccccc2-n2cccc23)ccc1O[C@@H]1CCOC1 [Compound 112]
≤ 2 µM | CCCOc1ccc(C(=O)N2CCC3(CC2)Oc2ccccc2-n2cccc23)cc1C(F)(F)F [Compound 69]
≤ 2 µM | COCCOc1ccc(C(=O)N2CCC3(CC2)Oc2cc(Cl)ccc2-n2cccc23)cc1C [Compound 211]
≤ 2 µM | Cn1ncc2c1-c1ccccc1OC21CCN(C(=O)c2ccc(OCCOC(F)(F)F)c(C#N)c2)CC1 [Compound 26]
≤ 2 µM | O=C(c1cccc(C(F)(F)F)c1)N1CCC2(CC1)Oc1cc(Cl)ccc1-n1cccc12 [Compound 367]
≤ 2 µM | Cc1cc(C(=O)N2CCC3(CC2)Oc2cc(F)ccc2-n2cccc23)ccc1C(C)(C)O [Compound 52]
≤ 2 µM | CC(C)C(O)c1ccc(C(=O)N2CCC3(CC2)Oc2ccccc2-n2c(C#N)ccc23)cc1 (centres unmarked) [Compound 65]
≤ 2 µM | CCc1ccc(C(=O)N2CCC3(CC2)Oc2cc(Cl)ccc2-n2cccc23)cc1C [Compound 55]
≤ 2 µM | CNS(=O)(=O)c1ccc(C(=O)N2CCC3(CC2)Oc2ccccc2-c2c3cnn2C)cc1 [Compound 494]
≤ 2 µM | COc1cc(C(=O)N2CCC3(CC2)Oc2ccccc2-n2cccc23)ccc1OCC(N)=O [Compound 687]
> 5 µM | Cn1ncc2c1-c1ccccc1OC21CCN(C(=O)c2ccccc2O)CC1 [Compound 102]
≤ 2 µM | CCCOc1ccc(C(=O)N2CCC3(CC2)Oc2cc(F)ccc2-n2cccc23)cc1OC [Compound 812]
≤ 2 µM | Cn1ncc2c1-c1ccccc1OC21CCN(C(=O)c2cccn3ccnc23)CC1 [Compound 99]
≤ 2 µM | Cc1ccc2c(c1)OC1(CCN(C(=O)c3ccc(OC(C)C)c(CO)c3)CC1)c1ccc(C#N)n1-2 [Compound 375]
≤ 2 µM | Cc1c(CO)cccc1C(=O)N1CCC2(CC1)Oc1ccccc1-n1c(C#N)ccc12 [Compound 516]
≤ 2 µM | CCOc1ncccc1C(=O)N1CCC2(CC1)Oc1ccccc1-n1c(C(F)(F)F)ccc12 [Compound 130]
≤ 2 µM | CC(C)Oc1ccc(C(=O)N2CCC3(CC2)Oc2ccccc2-n2c3ccc2S(C)(=O)=O)c(F)c1 [Compound 70]
≤ 2 µM | O=C(c1ccccc1O)N1CCC2(CC1)Oc1cc(Cl)ccc1-n1cccc12 [Compound 790]
≤ 2 µM | COC(C)(C)c1ccc(C(=O)N2CCC3(CC2)Oc2cc(Cl)ccc2-n2cccc23)cc1C [Compound 193]
≤ 2 µM | COc1cc(C(=O)N2CCC3(CC2)Oc2cc(F)ccc2-c2c3cnn2C)ccc1OC(C)C [Compound 617]
≤ 2 µM | C[C@@](O)(CO)c1ccc(C(=O)N2CCC3(CC2)Oc2ccccc2-n2c(C#N)ccc23)cc1 [Compound 406]
